In US20040142888A1, “Modulators of RabGGT and methods of use thereof” (priority 2002, published 2004):

Key:
C. elegans germline [1] = test: Apoptosis in the C. elegans germline (apoptotic corpses per germline arm), after compound and/or RNAi treatment; format: in vivo; conditions: wild-type worms, compound 1.5 mM
Description: The compounds were applied to early larval and adult C. elegans hermaphrodites by mixing a concentrated DMSO solution of the compound with heat-killed OP50 bacteria in a salt solution. The bacteria were then applied to agar plates and worms of the appropriate age seeded onto the plates. Compounds 7A, 7B, 7C, 7D, 7H, 7I and 7J were applied to worms at a final concentration of 1.5 mM. and the resulting visible phenotypes analyzed. The phenotype of apoptosis in C. elegans was quantified as follows: Germ cells in the C. elegans hermaphrodite gonad progress through various stages of differentiation to become mature ova. At the pachytene stage of meiotic prophase, some germ cells undergo programmed cell death (apoptosis) as part of normal development. The apoptotic corpses resulting from this process can be visualized by high-resolution Nomarski optics and are readily distinguishable cells to the trained eye from viable germ cells by their compact, button-like appearance. Necrotic cells, which are rarer, have a less compact appearance. Apoptosis is most reliably distinguished from necrosis, however, by its requirement for the core apoptotic machinery, such as a functional caspase/ced-3 gene. Since C. elegans has symmetrical anterior and posterior gonad structures, referred to as “arms”, apoptosis is scored by visually counting the apoptotic corpses present in a 1-2 day old adult in each germline arm. Normal, untreated worms rarely contain more than 2 corpses per arm. In a treated sample, the number of worms that contain more than 2 corpses provides a very accurate indicator of the apoptotic effect of the treatment. Early larval and adult C. elegans hermaphrodites were treated with compound and the phenotype of apoptosis in the germline arm was quantified as described in Example IV. DNA encoding GGTase alpha/[…].2 (GenBank entry NM-067966) and GGTase beta/B0280.1 (GenBank entry NM 066158) was amplified from a C. elegans genomic DNA template by PCR (Takara LA Taq DNA polymerase) using oligonucleotides containing gene-specific priming sequences that were flanked by sequences encoding the T7 polymerase priming site. The gene-specific priming sequences targeted the first 5 exons of B0280.1 (product size 2 kiloBases) and the first four exons of […].2 (product size 1 kiloBases). The PCR products were analyzed by gel electrophoresis to confirm that the correct product size was obtained. RNA was transcribed from the PCR product using the MEGAscript High Yield Transcription Kit (Ambion) according to manufacturer's instructions. Directly after transcription, the RNA was annealed by heating to 68° C. for 20 minutes. The double stranded RNA (dsRNA) was checked for product quality by gel electrophoresis. The dsRNA was then ethanol-precipitated, washed once with 100% ethanol and twice with 70% ethanol and the pellet was allowed to air dry for 30 minutes. The dsRNA was re-suspended in 1× IM buffer (20 mM KPO4, 3 mM potassium citrate, 2% PEG 6000) in volume equal to the original in vitro transcription reaction, and stored at -20° C. For RNAi treatment of worms, wild type animals at the L2/L3 stage of development were collected in M9 buffer at 50 animals/μl (M9 is 0.044 M KH2PO4, 0.085 M Na2HPO4, 0.18 M NaCl and 1 mM MgSO4). 1 μl of this nematode suspension was added to 3 μl of dsRNA and incubated for 24 hours in a sealed 96 well plate at 20° C. in a humidified chamber. Animals were allowed to develop to adulthood before compound treatment and/or assay of germline apoptosis as described in Example IV. Early larval and adult C. elegans hermaphrodites were treated with compound as described in Example IV. RNAi preparation and treatment was performed as described in Example VI. The phenotype of apoptosis in the germline arm was quantified as described in Example IV. Early larval and adult C. elegans hermaphrodites were treated with compound as described in Example IV. RNAi preparation and treatment was performed as described in Example VI. […]

HCT116 colon tumor = conditions: HCT116 xenograft, 600 mg/kg orally once daily for ten doses, cited from earlier work
C. elegans germline [2] = test: Apoptosis in the C. elegans germline (apoptotic corpses per germline arm), after compound and/or RNAi treatment; format: in vivo; conditions: for increase in apoptotic corpses / % arms with >2 corpses / Corpses/germline arm, mean / Frequency: germline arms with 0 apoptotic corpses / Frequency: germline arms with 1 apoptotic corpse / Frequency: germline arms with 2 apoptotic corpses / Frequency: germline arms with 3 apoptotic corpses / Frequency: germline arms with 4 apoptotic corpses / Frequency: germline arms with >4 apoptotic corpses: 7B at 1.6 mM
[3] = wild-type worms, 7B 0.3 mM and/or RNAi against RabGGT alpha subunit

Cn1cncc1CN1C[C@@H](Cc2ccccc2)N(S(=O)(=O)c2cccs2)Cc2cc(C#N)ccc21 [Compound 7J]
% arms with >2 corpses (C. elegans germline [1]): 59%
Corpses/germline arm, mean (C. elegans germline [1]): 2.8
Frequency: germline arms with 0 apoptotic corpses (C. elegans germline [1]): 3
Frequency: germline arms with 1 apoptotic corpse (C. elegans germline [1]): 4
Frequency: germline arms with 2 apoptotic corpses (C. elegans germline [1]): 1
Frequency: germline arms with 3 apoptotic corpses (C. elegans germline [1]): 4
Frequency: germline arms with 4 apoptotic corpses (C. elegans germline [1]): 4
Frequency: germline arms with >4 apoptotic corpses (C. elegans germline [1]): 3
effect on mean number of apoptotic corpses in the germline (C. elegans germline [1]): increasing the mean number of apoptotic corpses in the germline

CCCS(=O)(=O)N1Cc2cc(C#N)ccc2N(Cc2cnc[nH]2)C[C@H]1Cc1ccccc1 [Compound 7H]
% arms with >2 corpses (C. elegans germline [1]): 29%
Corpses/germline arm, mean (C. elegans germline [1]): 1.6
Frequency: germline arms with 0 apoptotic corpses (C. elegans germline [1]): 5
Frequency: germline arms with 1 apoptotic corpse (C. elegans germline [1]): 4
Frequency: germline arms with 3 apoptotic corpses (C. elegans germline [1]): 3
Frequency: germline arms with 4 apoptotic corpses (C. elegans germline [1]): 2
Frequency: germline arms with >4 apoptotic corpses (C. elegans germline [1]): 0
effect on mean number of apoptotic corpses in the germline (C. elegans germline [1]): increasing the mean number of apoptotic corpses in the germline
death attributed to drug related toxicity (among eight mice treated) (HCT116 colon tumor): one
mice that experienced cure of the tumor (among eight mice treated) (HCT116 colon tumor; cure = no mass larger than 35 mg): seven

N#Cc1ccc2c(c1)CN(S(=O)(=O)N1CCCCC1)[C@H](Cc1ccccc1)CN2Cc1cnc[nH]1 [Compound 7B]
% arms with >2 corpses (C. elegans germline [1]): 92%
Corpses/germline arm, mean (C. elegans germline [1]): 6.9
Frequency: germline arms with 0 apoptotic corpses (C. elegans germline [1]): 0
Frequency: germline arms with 1 apoptotic corpse (C. elegans germline [1]): 0
Frequency: germline arms with 2 apoptotic corpses (C. elegans germline [1]): 1
Frequency: germline arms with 3 apoptotic corpses (C. elegans germline [1]): 1
Frequency: germline arms with 4 apoptotic corpses (C. elegans germline [1]): 0
Frequency: germline arms with >4 apoptotic corpses (C. elegans germline [1]): 10
increase in apoptotic corpses (C. elegans germline [2]; APAF-1/ced-4 mutants): no increase in corpses was observed
% arms with >2 corpses (C. elegans germline [2]; WT worms): 100%
Corpses/germline arm, mean (C. elegans germline [2]; WT worms): 6.25
Frequency: germline arms with 0 apoptotic corpses (C. elegans germline [2]; WT worms): 0
Frequency: germline arms with 1 apoptotic corpse (C. elegans germline [2]; WT worms): 0
Frequency: germline arms with 2 apoptotic corpses (C. elegans germline [2]; WT worms): 0
Frequency: germline arms with 3 apoptotic corpses (C. elegans germline [2]; WT worms): 1
Frequency: germline arms with 4 apoptotic corpses (C. elegans germline [2]; WT worms): 0
Frequency: germline arms with >4 apoptotic corpses (C. elegans germline [2]; WT worms): 10
increase in apoptotic corpses (C. elegans germline [2]; caspase/ced-3 mutants): no increase in corpses was observed
% arms with >2 corpses (C. elegans germline [2]; ced3 mutant worms): 0%
Corpses/germline arm, mean (C. elegans germline [2]; ced3 mutant worms): 0.08
Frequency: germline arms with 0 apoptotic corpses (C. elegans germline [2]; ced3 mutant worms): 12
Frequency: germline arms with 1 apoptotic corpse (C. elegans germline [2]; ced3 mutant worms): 1
Frequency: germline arms with 2 apoptotic corpses (C. elegans germline [2]; ced3 mutant worms): 0
Frequency: germline arms with 3 apoptotic corpses (C. elegans germline [2]; ced3 mutant worms): 0
Frequency: germline arms with 4 apoptotic corpses (C. elegans germline [2]; ced3 mutant worms): 0
Frequency: germline arms with >4 apoptotic corpses (C. elegans germline [2]; ced3 mutant worms): 0
% arms with >2 corpses (C. elegans germline [2]; ced4 mutant worms): 0%
Corpses/germline arm, mean (C. elegans germline [2]; ced4 mutant worms): 0.15
Frequency: germline arms with 0 apoptotic corpses (C. elegans germline [2]; ced4 mutant worms): 11
Frequency: germline arms with 1 apoptotic corpse (C. elegans germline [2]; ced4 mutant worms): 2
Frequency: germline arms with 2 apoptotic corpses (C. elegans germline [2]; ced4 mutant worms): 0
Frequency: germline arms with 3 apoptotic corpses (C. elegans germline [2]; ced4 mutant worms): 0
Frequency: germline arms with 4 apoptotic corpses (C. elegans germline [2]; ced4 mutant worms): 0
Frequency: germline arms with >4 apoptotic corpses (C. elegans germline [2]; ced4 mutant worms): 0
observed number of apoptotic corpses per germline arm (C. elegans germline [2]; wild-type adult worms, compound at 0.8 mM or higher): 5-7
% arms with 0-2 corpses (C. elegans germline [2]; [3]): 50%
% arms with 3-4 corpses (C. elegans germline [2]; [3]): 33%
% arms with >4 corpses (C. elegans germline [2]; [3]): 17%
Corpses/arm, mean (C. elegans germline [2]; [3]): 2.3
Frequency: arms with 0 apoptotic corpses (C. elegans germline [2]; [3]): 5
Frequency: arms with 1 apoptotic corpse (C. elegans germline [2]; [3]): 5
Frequency: arms with 2 apoptotic corpses (C. elegans germline [2]; [3]): 2
Frequency: arms with 3 apoptotic corpses (C. elegans germline [2]; [3]): 5
Frequency: arms with 4 apoptotic corpses (C. elegans germline [2]; [3]): 3
Frequency: arms with >4 apoptotic corpses (C. elegans germline [2]; [3]): 4

COc1ccc(S(=O)(=O)N2Cc3cc(C#N)ccc3N(Cc3cnc[nH]3)C[C@H]2Cc2ccccc2)cc1 [Compound 7A]
% arms with >2 corpses (C. elegans germline [1]): 36%
Corpses/germline arm, mean (C. elegans germline [1]): 2.0
Frequency: germline arms with 0 apoptotic corpses (C. elegans germline [1]): 1
Frequency: germline arms with 1 apoptotic corpse (C. elegans germline [1]): 4
Frequency: germline arms with 2 apoptotic corpses (C. elegans germline [1]): 2
Frequency: germline arms with 3 apoptotic corpses (C. elegans germline [1]): 3
Frequency: germline arms with 4 apoptotic corpses (C. elegans germline [1]): 0
Frequency: germline arms with >4 apoptotic corpses (C. elegans germline [1]): 1
effect on mean number of apoptotic corpses in the germline (C. elegans germline [1]): increasing the mean number of apoptotic corpses in the germline

COc1ccc(S(=O)(=O)N2Cc3cc(C#N)ccc3N(Cc3cncn3C)C[C@H]2Cc2ccccc2)cc1 [Compound 7I]
% arms with >2 corpses (C. elegans germline [1]): 33%
Corpses/germline arm, mean (C. elegans germline [1]): 2.3
Frequency: germline arms with 0 apoptotic corpses (C. elegans germline [1]): 1
Frequency: germline arms with 1 apoptotic corpse (C. elegans germline [1]): 3
Frequency: germline arms with 2 apoptotic corpses (C. elegans germline [1]): 3
Frequency: germline arms with 3 apoptotic corpses (C. elegans germline [1]): 1
Frequency: germline arms with 4 apoptotic corpses (C. elegans germline [1]): 2
Frequency: germline arms with >4 apoptotic corpses (C. elegans germline [1]): 1
effect on mean number of apoptotic corpses in the germline (C. elegans germline [1]): increasing the mean number of apoptotic corpses in the germline
